A short description of data set [1]: Homogeneity of cured silicone elastomer incorporating the cyclodextrin. It counts as physicochemical. The settings on record: hydrosilylation-cured PDMS elastomer, procedure analogous to CH95-70. An excerpt: 0.802 g (0.304 mmol) CH70, dimethylvinylsilyl-β-cyclodextrin, and 52.0 g of a silicon hydride terminated polydimethylsiloxane fluid with a viscosity of approx. 1000 mPa·s, are placed in a suitable plastic cup with a lid along with a magnetic stir bar. The cup is blanketed with nitrogen gas and then closed to maintain an inert atmosphere while stirring. The materials are stirred until the cyclodextrin is fully dissolved. To this solution, 22.9 g of a vinyl terminated polydimethylsiloxane fluid with a viscosity of approx. 100,000 mPa·s, are added and the contents of the plastic cup are hand-mixed with a stirring rod. 0.0757 g of a platinum catalyst solution, divinyl tetramethyl disiloxane platinum complex diluted in vinyl terminated polysiloxane (1% w/w Pt content), are added to the mixture and hand-mixed, followed by further mixing in a FlackTek, Inc. Speedmixer™, model DAC 1100.2 VAC, at 1250 rpm for 1 minute under vacuum (95 mbar pressure, to degas the mixture).
The composition is then placed into a “plate and frame” mold lined with a suitable release liner. The composition and mold are put into an oven preheated at 80° C. for 1 h to cure into a rubber slab produced are approximately 6 in X 6 in X 0.072 in. The cured elastomer specimen is clear and colorless. […]

A short description of data set [2]: Solubility of silylated cyclodextrins in silicone fluid BELSIL DM 5. As to the method:
Such a homogneous mixture can also be formed by using a magnetic stirrer, overhead stirrer, Speedmixer™ or similar mixing techniques.
Above experiment was repeated with a native γ-CD CAVAMAX® W8, which was not modified with silylation.
Silylated β-cyclodextrin CH77 with low number of silyl groups (7.95 TMS and 3.23 VDMS groups on average) was evaluated to check the solubility in DM 5 at 10 wt. %.

A short description of data set [3]: Thermogravimetric analysis (TGA) of evaporation of active, pure versus silyl-CD complex. It counts as physicochemical. From the text:
Complex formation provides advantage for practical use of these guest molecules, many of which are pharmaceutical or cosmetic actives. For example, complexation slows down the evaporation of actives making the actives last longer. This is confirmed by Thermogravimetric analysis (TGA). Thermogravimetric analysis results for pure geraniol and its 1:1 complex with trimethylsilyl-β-cyclodextrin CH62 are shown in FIG. 4.
The complex with TMS-β-CD CH62 contains approximately 6 wt. % Geraniol. […] Thus, complexation with silyl-CD slows down loss of geraniol.
In FIG. 5 TGA thermograms show similar observations for complexation between a silyl-CD MG 15 and alpha-pinene 1:1 compared with pure alpha-pinene.
Pure pinene completely evaporates by 140° C., but it takes up to approximately 200° C. for the pinene to completely evaporate from the complex.

Data set [4] is described as follows: Release of geraniol from cured elastomer, weight loss in oven at 60° C. It counts as physicochemical. Here is the method: A cured elastomer/CD/geraniol sample (VP141-2-1) containing 10:1 mole ratio of geraniol to CD was prepared by using the following procedure: Trimethylsilyl-β-cyclodextrin CH62 (1.41 g, 0.59 mmol) and geraniol (0.90 g, 5.9 mmol) were added to a plastic cup and mixed using a Speedmixer™ for 2 min at 2000 rpm (mixing was repeated 2-3 times). The mixture appeared almost homogeneous. SiH terminated linear silicone of approximate formula MHD220MH and approximate viscosity 1000 mPa·s (13.95 g), SiH terminated and pendant SiH containing silicone of approximate formula MHD95.5DH9.6MH and having an approximate viscosity of 165 mPa·s (0.71 g), vinyl terminated linear silicone of approximate viscosity 1000 mPa·s (22.31 g) and platinum catalyst solution (0.078 g) were added to the cup and mixed using Speedmixer™ for 2 min at 2000 rpm (x 3-4 times). The resulted clear and colorless mixture was left in the tightly closed cup for 24-36 h to cure at room temperature to get a cured elastomer sample.
Then, vinyl terminated linear silicone of approximate viscosity 1000 mPa·s(23.09 g) and platinum catalyst solution (0.075 g) were added to the cup and mixed using Speedmixer™ for 2 min at 2000 rpm (mixing was repeated 2-3 times). The resultant clear, colorless mixture was left in the tightly closed cup for 24-36 h to cure at room temperature to get a cured elastomer sample. […]

Each structure is given as a SMILES string. Read-outs that look alike come from different tables or passages of the source.

Take `OC[C@H]1O[C@@H]2O[C@H]3[C@H](O)[C@@H](O)[C@@H](O[C@H]4[C@H](O)[C@@H](O)[C@@H](O[C@H]5[C@H](O)[C@@H](O)[C@@H](O[C@H]6[C@H](O)[C@@H](O)[C@@H](O[C@H]7[C@H](O)[C@@H](O)[C@@H](O[C@H]8[C@H](O)[C@@H](O)[C@@H](O[C@H]1[C@H](O)[C@H]2O)O[C@@H]8CO)O[C@@H]7CO)O[C@@H]6CO)O[C@@H]5CO)O[C@@H]4CO)O[C@@H]3CO` [CAVAMAX® W7, β-cyclodextrin]: the “appearance of cured elastomer sample” value in data set [1] is reported as “heterogeneous, opaque, with large domain separations”.
Turning to `OC[C@H]1O[C@@H]2O[C@H]3[C@H](O)[C@@H](O)[C@@H](O[C@H]4[C@H](O)[C@@H](O)[C@@H](O[C@H]5[C@H](O)[C@@H](O)[C@@H](O[C@H]6[C@H](O)[C@@H](O)[C@@H](O[C@H]7[C@H](O)[C@@H](O)[C@@H](O[C@H]8[C@H](O)[C@@H](O)[C@@H](O[C@H]9[C@H](O)[C@@H](O)[C@@H](O[C@H]1[C@H](O)[C@H]2O)O[C@@H]9CO)O[C@@H]8CO)O[C@@H]7CO)O[C@@H]6CO)O[C@@H]5CO)O[C@@H]4CO)O[C@@H]3CO` [CAVAMAX® W8, γ-cyclodextrin], the “solubility in DM 5 (appearance of mixture)” value in data set [2] was “heterogeneous and opaque, with gross phase separation”.
For `CC(C)=CCC/C(C)=C/CO` [Geraniol, geraniol], in data set [3], the “temperature at which evaporation (weight loss) starts” value was “approximately 75 °C” and the “temperature at which evaporation is complete” value was “approximately 225 °C”. In addition, the “time to complete release of geraniol” value in data set [4] is reported as “a few hours”.
As to `COC[C@H]1O[C@@H]2O[C@H]3[C@H](OC)[C@@H](OC)[C@@H](O[C@H]4[C@H](OC)[C@@H](OC)[C@@H](O[C@H]5[C@H](OC)[C@@H](OC)[C@@H](O[C@H]6[C@H](OC)[C@@H](OC)[C@@H](O[C@H]7[C@H](OC)[C@@H](OC)[C@@H](O[C@H]8[C@H](OC)[C@@H](OC)[C@@H](O[C@H]1[C@H](OC)[C@H]2OC)O[C@@H]8COC)O[C@@H]7COC)O[C@@H]6COC)O[C@@H]5COC)O[C@@H]4COC)O[C@@H]3COC` [permethylated β-cyclodextrin], in data set [2] (10 wt. % mixture in BELSIL DM 5 (polydimethylsiloxane, 5 mPa·s), vortex mixer), the “solubility in DM 5 (appearance of mixture)” value is “heterogeneous and opaque”. Further, the “appearance of cured elastomer sample” value in data set [1] was “heterogeneous, opaque, with large domain separations”.
Turning to `CC1=CCC2CC1C2(C)C` (stereo not drawn) [pinene, alpha-pinene], in data set [3], the “temperature at which evaporation (weight loss) starts” value was under 30 °C and the “temperature at which evaporation is complete” value is at most 140 °C.

Source of the values: patent US20250270394A1, “CYCLODEXTRIN INCORPORATED SILICONE MATERIALS AND THEIR USE AS CARRIERS FOR ACTIVES” (WACKER CHEMIE AG, priority 2022, published 2025).
